Reference: US20240376084A1, “INHIBITORS OF ALPHA-HEMOLYSIN OF STAPHYLOCOCCUS AUREUS” (Helmholtz-Zentrum Fur Infektionsforschung GmbH, priority 2021, published 2024)

Legend:
[1] = biological target: hemolysin alpha from Staphylococcus aureus (Staphylococcus aureus, UniProt P09616); assay: cell-based
[2] = biological target: S. aureus Alpha hemolysin (Staphylococcus aureus, UniProt P09616); assay: cell-based; settings: A549-LDH Assay activity
Chain of S. aureus Alpha hemolysin (P09616 27-319 limits assumed): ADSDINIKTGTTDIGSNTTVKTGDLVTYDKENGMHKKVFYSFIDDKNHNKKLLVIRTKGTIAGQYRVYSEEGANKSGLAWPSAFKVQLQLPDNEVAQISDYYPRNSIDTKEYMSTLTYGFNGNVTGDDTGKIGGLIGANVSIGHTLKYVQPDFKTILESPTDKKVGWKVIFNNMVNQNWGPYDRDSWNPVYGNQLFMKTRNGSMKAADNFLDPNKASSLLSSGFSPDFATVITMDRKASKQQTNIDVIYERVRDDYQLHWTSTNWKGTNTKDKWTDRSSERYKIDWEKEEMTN

Chain of hemolysin alpha from Staphylococcus aureus (P09616 27-319 limits assumed): as above

Cc1cc2[nH]c(=O)c(=O)[nH]c2cc1S(=O)(=O)Nc1ccc(-c2ccc3c(c2)NC(=O)C3)c(Cl)c1 [Compound 350, N-[3-chloro-4-(2-oxoindolin-6-yl)phenyl]-7-methyl-2,3-dioxo-1,4-dihydroquinoxaline-6-sulfonamide]
EC50 [1]: 30 to 100 nM
EC50 [2]: 30 to 100 nM

Cc1cc2[nH]c(=O)c(=O)[nH]c2cc1S(=O)(=O)Nc1ccc(-c2ccccc2C(N)=O)cc1 [Compound 126, 4′-((7-methyl-2,3-dioxo-1,2,3,4-tetrahydroquinoxaline)-6-sulfonamido)-[1,1′-biphenyl]-2-carboxamide]
IC50 [1]: 1000 to 3500 nM
EC50 [2]: 100 to 1000 nM

CCOc1cc2[nH]c(=O)c(=O)[nH]c2cc1S(=O)(=O)Nc1ccc(OC(F)(F)F)cc1 [Compound 278, 7-ethoxy-2,3-dioxo-N-[4-(trifluoromethoxy)phenyl]-1,4-dihydroquinoxaline-6-sulfonamide]
EC50 [1]: 100 to 1000 nM
EC50 [2]: < 30 nM

C#Cc1ccc(NS(=O)(=O)c2cc3[nH]c(=O)c(=O)[nH]c3cc2C)cc1 [Compound 130, N-(4-ethynylphenyl)-7-methyl-2,3-dioxo-1,2,3,4-tetrahydroquinoxaline-6-sulfonamide]
IC50 [1]: 100 to 1000 nM
EC50 [2]: 100 to 1000 nM

O=c1[nH]c2cc(Cl)c(S(=O)(=O)Nc3ccc(C4CCCCC4)cc3)cc2[nH]c1=O [Compound 170, 7-chloro-N-(4-cyclohexylphenyl)-2,3-dioxo-1,2,3,4-tetrahydroquinoxaline-6-sulfonamide]
IC50 [1]: 100 to 1000 nM
EC50 [2]: 100 to 1000 nM

CCc1cc2[nH]c(=O)c(=O)[nH]c2cc1S(=O)(=O)Nc1ccc(OC(F)(F)F)cc1 [Compound 20, 7-ethyl-2,3-dioxo-N-(4-(trifluoromethoxy)phenyl)-1,2,3,4-tetrahydroquinoxaline-6-sulfonamide]
IC50 [1]: < 30 nM
EC50 [2]: 30 to 100 nM

Cc1cc2[nH]c(=O)c(=O)[nH]c2cc1S(=O)(=O)NC12CC(c3ccccc3)(C1)C2 [Compound 230, 7-methyl-2,3-dioxo-N-(3-phenylbicyclo[1.1.1]pentan-1-yl)-1,2,3,4-tetrahydroquinoxaline-6-sulfonamide]
EC50 [1]: 100 to 1000 nM
EC50 [2]: 100 to 1000 nM

Cc1cc2[nH]c(=O)c(=O)[nH]c2cc1S(=O)(=O)Nc1cc(C)c(-c2ccccc2Cl)c(C)c1 [Compound 104, N-(2′-chloro-2,6-dimethyl-[1,1′-biphenyl]-4-yl)-7-methyl-2,3-dioxo-1,2,3,4-tetrahydroquinoxaline-6-sulfonamide]
IC50 [1]: 100 to 1000 nM
EC50 [2]: 100 to 1000 nM

Cc1cc2[nH]c(=O)c(=O)[nH]c2cc1S(=O)(=O)Nc1ccc(OC(F)(F)F)c(Br)c1 [Compound 322, N-[3-bromo-4-(trifluoromethoxy)phenyl]-7-methyl-2,3-dioxo-1,4-dihydroquinoxaline-6-sulfonamide]
EC50 [1]: 30 to 100 nM
EC50 [2]: 30 to 100 nM

Cc1cc2[nH]c(=O)c(=O)[nH]c2cc1S(=O)(=O)Nc1ccc(-c2cn(C)c3ccccc23)c(Cl)c1 [Compound 340, N-[3-chloro-4-(1-methylindol-3-yl)phenyl]-7-methyl-2,3-dioxo-1,4-dihydroquinoxaline-6-sulfonamide]
EC50 [1]: 100 to 1000 nM
EC50 [2]: 1000 to 6000 nM

CCc1ccc(NS(=O)(=O)c2cc3[nH]c(=O)c(=O)[nH]c3cc2C)cc1 [Compound 92, N-(4-ethylphenyl)-7-methyl-2,3-dioxo-1,2,3,4-tetrahydroquinoxaline-6-sulfonamide]
IC50 [1]: < 30 nM
EC50 [2]: < 30 nM

Cc1cc2[nH]c(=O)c(=O)[nH]c2cc1S(=O)(=O)Nc1ccc(C2CCCCC2)cc1 [Compound 86, N-(4-cyclohexylphenyl)-7-methyl-2,3-dioxo-1,2,3,4-tetrahydroquinoxaline-6-sulfonamide]
IC50 [1]: 100 to 1000 nM
EC50 [2]: 100 to 1000 nM

Cc1cc2[nH]c(=O)c(=O)[nH]c2cc1S(=O)(=O)Nc1ccc2c(c1)B(O)OC2 [Compound 388, N-(1-hydroxy-3H-2,1-benzoxaborol-6-yl)-7-methyl-2,3-dioxo-1,4-dihydroquinoxaline-6-sulfonamide]
EC50 [1]: 100 to 1000 nM
EC50 [2]: 1000 to 6000 nM

[2H]C([2H])([2H])c1cc2[nH]c(=O)c(=O)[nH]c2cc1S(=O)(=O)Nc1cnc(-c2ccc(F)cc2)c(Cl)c1 [Compound 392, N-[5-chloro-6-(4-fluorophenyl)-3-pyridyl]-2,3-dioxo-7-(trideuteriomethyl)-1,4-dihydroquinoxaline-6-sulfonamide]
EC50 [1]: 30 to 100 nM
EC50 [2]: 100 to 1000 nM

Cc1cc2[nH]c(=O)c(=O)[nH]c2cc1S(=O)(=O)Nc1ccc(-c2cc(F)cc(C(N)=O)c2)c(C(F)(F)F)c1 [Compound 363, 3-fluoro-5-[4-[(7-methyl-2,3-dioxo-1,4-dihydroquinoxalin-6-yl)sulfonylamino]-2-(trifluoromethyl)phenyl]benzamide]
EC50 [1]: 30 to 100 nM
EC50 [2]: 30 to 100 nM

Cc1cc2[nH]c(=O)c(=O)[nH]c2cc1S(=O)(=O)Nc1ccc(-c2ccc3c(c2)N(C)C(=O)CO3)c(Cl)c1 [Compound 356, N-[3-chloro-4-(4-methyl-3-oxo-1,4-benzoxazin-6-yl)phenyl]-7-methyl-2,3-dioxo-1,4-dihydroquinoxaline-6-sulfonamide]
EC50 [1]: < 30 nM
EC50 [2]: 30 to 100 nM

Cc1cc2[nH]c(=O)c(=O)[nH]c2cc1S(=O)(=O)Nc1ccc(-c2ccc(F)cc2)c(Br)c1 [Compound 244, N-[3-bromo-4-(4-fluorophenyl)phenyl]-7-methyl-2,3-dioxo-1,4-dihydroquinoxaline-6-sulfonamide]
EC50 [1]: < 30 nM
EC50 [2]: 30 to 100 nM

Cc1cc2[nH]c(=O)c(=O)[nH]c2cc1S(=O)(=O)Nc1cc(C)c(-c2ccccc2)c(C)c1 [Compound 73, N-(2,6-dimethyl-[1,1′-biphenyl]-4-yl)-7-methyl-2,3-dioxo-1,2,3,4-tetrahydroquinoxaline-6-sulfonamide]
IC50 [1]: 100 to 1000 nM
EC50 [2]: 100 to 1000 nM

Cc1cc2[nH]c(=O)c(=O)[nH]c2c(F)c1S(=O)(=O)Nc1ccc(-c2cccc(Cl)c2)c(Cl)c1 [Compound 43, N-(2,3′-dichloro-[1,1′-biphenyl]-4-yl)-5-fluoro-7-methyl-2,3-dioxo-1,2,3,4-tetrahydroquinoxaline-6-sulfonamide]
IC50 [1]: 30 to 100 nM
EC50 [2]: 1000 to 6000 nM

O=c1[nH]c2cc(C(F)F)c(S(=O)(=O)Nc3ccc(OC(F)(F)F)cc3)cc2[nH]c1=O [Compound 218, 7-(difluoromethyl)-2,3-dioxo-N-(4-(trifluoromethoxy)phenyl)-1,2,3,4-tetrahydroquinoxaline-6-sulfonamide]
EC50 [1]: 100 to 1000 nM
EC50 [2]: 100 to 1000 nM

O=c1[nH]c2cc(Cl)c(S(=O)(=O)Nc3ccc(-c4ccc5c(c4)NCC5)c(Cl)c3)cc2[nH]c1=O [Compound 46, 7-chloro-N-(3-chloro-4-(indolin-6-yl)phenyl)-2,3-dioxo-1,2,3,4-tetrahydroquinoxaline-6-sulfonamide]
IC50 [1]: 30 to 100 nM
EC50 [2]: 100 to 1000 nM

Cc1cc2[nH]c(=O)c(=O)[nH]c2cc1S(=O)(=O)Nc1ccc(C2CCCCC2)c(Cl)c1 [Compound 284, N-(3-chloro-4-cyclohexyl-phenyl)-7-methyl-2,3-dioxo-1,4-dihydroquinoxaline-6-sulfonamide]
EC50 [1]: 30 to 100 nM
EC50 [2]: 100 to 1000 nM

CCCc1ccc(NS(=O)(=O)c2cc3[nH]c(=O)c(=O)[nH]c3cc2F)cc1 [Compound 87, 7-fluoro-2,3-dioxo-N-(4-propylphenyl)-1,2,3,4-tetrahydroquinoxaline-6-sulfonamide]
IC50 [1]: 100 to 1000 nM
EC50 [2]: 30 to 100 nM

CC(C)c1ccc(NS(=O)(=O)c2cc3[nH]c(=O)c(=O)[nH]c3cc2F)cc1 [Compound 101, 7-fluoro-N-(4-isopropylphenyl)-2,3-dioxo-1,2,3,4-tetrahydroquinoxaline-6-sulfonamide]
IC50 [1]: 100 to 1000 nM
EC50 [2]: 100 to 1000 nM

Cc1cc2[nH]c(=O)c(=O)[nH]c2cc1S(=O)(=O)Nc1ccc(Br)c(Cl)c1 [Compound 75, N-(4-bromo-3-chlorophenyl)-7-methyl-2,3-dioxo-1,2,3,4-tetrahydroquinoxaline-6-sulfonamide]
IC50 [1]: 100 to 1000 nM
EC50 [2]: 100 to 1000 nM

Cc1cc2[nH]c(=O)c(=O)[nH]c2cc1S(=O)(=O)Nc1ccc(-c2ccsc2)c(Cl)c1 [Compound 7, N-(3-chloro-4-(thiophen-3-yl)phenyl)-7-methyl-2,3-dioxo-1,2,3,4-tetrahydroquinoxaline-6-sulfonamide]
IC50 [1]: < 30 nM
EC50 [2]: 100 to 1000 nM

Cc1cc2[nH]c(=O)c(=O)[nH]c2cc1S(=O)(=O)Nc1ccc(-c2ccc3c(c2)NCCO3)c(Cl)c1 [Compound 353, N-[3-chloro-4-(3,4-dihydro-2H-1,4-benzoxazin-6-yl)phenyl]-7-methyl-2,3-dioxo-1,4-dihydroquinoxaline-6-sulfonamide]
EC50 [1]: 30 to 100 nM
EC50 [2]: 100 to 1000 nM

O=c1[nH]c2cc(F)c(S(=O)(=O)Nc3ccc(-c4cccnc4)c(Cl)c3)cc2[nH]c1=O [Compound 99, N-(3-chloro-4-(pyridin-3-yl)phenyl)-7-fluoro-2,3-dioxo-1,2,3,4-tetrahydroquinoxaline-6-sulfonamide]
IC50 [1]: 100 to 1000 nM
EC50 [2]: 1000 to 6000 nM

Cc1cc2[nH]c(=O)c(=O)[nH]c2cc1S(=O)(=O)Nc1ccc(-c2ccc(NC(=O)N(C)C)cc2)c(Cl)c1 [Compound 332, 3-[4-[2-chloro-4-[(7-methyl-2,3-dioxo-1,4-dihydroquinoxalin-6-yl)sulfonylamino]phenyl]phenyl]-1,1-dimethyl-urea]
EC50 [1]: 100 to 1000 nM
EC50 [2]: 100 to 1000 nM

Cc1cc2[nH]c(=O)c(=O)[nH]c2cc1S(=O)(=O)Nc1ccc(-c2ccc(C#N)nc2)c(Cl)c1 [Compound 254, N-[3-chloro-4-(6-cyano-3-pyridyl)phenyl]-7-methyl-2,3-dioxo-1,4-dihydroquinoxaline-6-sulfonamide]
EC50 [1]: 100 to 1000 nM
EC50 [2]: 100 to 1000 nM

Cc1cc2[nH]c(=O)c(=O)[nH]c2cc1S(=O)(=O)Nc1ccc(-c2ccc(F)c(C(N)=O)c2)c(Cl)c1 [Compound 389, 5-[2-chloro-4-[(7-methyl-2,3-dioxo-1,4-dihydroquinoxalin-6-yl)sulfonylamino]phenyl]-2-fluoro-benzamide]
EC50 [1]: < 30 nM
EC50 [2]: 30 to 100 nM

Cc1ccc(NS(=O)(=O)c2cc3[nH]c(=O)c(=O)[nH]c3cc2C)cc1Cl [Compound 181, N-(3-chloro-4-methylphenyl)-7-methyl-2,3-dioxo-1,2,3,4-tetrahydroquinoxaline-6-sulfonamide]
IC50 [1]: 1000 to 3500 nM
